Numbers after ± are expanded uncertainties.

For data set [1] the following is noted: Crystal; visual observation.
A short description of data set [2]: Molar enthalpy of transition or fusion. As to conditions: Crystal; DSC.

With `Oc1ccc2ccccc2c1` [2-hydroxynaphthalene], the Normal melting temperature in data set [1] was found to be 121.20 ± 1.5 °C. In data set [2], the “Molar enthalpy of transition or fusion” value was determined as 5.04 ± 0.717 kcal/mol.
